Experiment: Calculated total uptake into blood and deposition of vitamin D3 from the blood level curves (FIG. 6)
Format: in vivo, human
Details: for amount of vitamin D3 deposited in the first 24 hours: assuming a total blood volume of 5 liters
From the text: FIG. 6: The upper curves show the calculated total amounts of vitamin D3 arriving in blood of malabsorptive, obese and normal individuals. The lower curves show the experimental blood levels of vitamin D3 expressed in ng/mL of blood. The upper curves are as well expressed in ng/mL of blood, disregarding differing total blood volumes for malabsorptive, obese and normal individuals.
In order to further analyze the results, the shape of the concentration/time-curves describing the observed average blood levels of vitamin D3 was used to approximately calculate its total uptake into blood after dosage. The calculation was based on the assumptions compiled in the comments regarding FIG. 6. Metabolism in terms of the appearance of 25(OH)D3 which was experimentally determined in parallel to vitamin D3 can thereby be regarded as part of the immediately disappearing percentage of the total uptake into blood, and it is reasonable to assume that there is no other relevant metabolic step in this early phase, which has to be taken into account.
FIG. 6 presents the accordingly calculated total uptake and the experimentally determined levels of vitamin D3 for the first 24 hours after dosing. The difference between the upper (calculated) and the lower (experimental) curve represents the sum of metabolism and deposition. Herein the assumption is made that the elimination can be disregarded, because as known to the skilled person there is essentially no elimination of non-metabolized vitamin D3 from blood into urine. Metabolism in the first 24 hours results in all three cases (viz., malabsorptive, obese, and normal subjects) in the consumption of about 2 to 5 ng/mL, viz. a small part of the mentioned calculated difference (compare FIG. 7). No correction relating to said consumption seems necessary for determining the metabolite's observed concentration because the metabolite is rapidly forming a DBP-complex, characterized by a long half-life. However, the fact that the 25(OH)D3 formed must be determined as difference to baseline adds an element of uncertainty and the assumption that no more than a minor part of the 25(OH)D3 formed in this phase may not be absolutely to the point.
wherein the same correction regarding metabolism, as described above, was used for the obese and for the normal individuals, viz. 1.5 ng/mL at 15 hours and 3.5 ng/mL at 24 hours, respectively. These values come from FIG. 7B and are charged with a significant uncertainty—due to the significant experimental error in the early part of the respective curves. But they make sense, if inspecting the subsequent increase which can be more reliably determined. […]
The following relates to the coverage of the surface of adipocytes with vitamin D3. […] A homogenous cell diameter of 50 μm was determined to deliver about the same overall cell-surface one calculates by working with the rather wide experimental distribution of cell sizes as reported by Karin G. Stenkula et al. Thereby it was in the sense of a model consideration assumed that cubes containing large lipid droplet cubes can be used to describe the cells' shape (in other words: cubes of an edge-length of 50 μm enclosing cubes of about the same size were determined to represent a reasonable model for the description of the combined surface of the variable size cells' with their lipid droplets). […]

C=C1CC[C@H](O)C/C1=C/C=C1\CCC[C@]2(C)[C@@H]([C@H](C)CCCC(C)C)CC[C@@H]12 [vitamin D3, cholecalciferol]
R, deposition in fatty tissues in high BMI versus low BMI subjects (after 2½ days, from difference to Cmax and differing blood volumes): 1.05 times
amount of vitamin D3 deposited in the first 24 hours (healthy obese subjects): 92.5 µg
deposition of vitamin D3 (low BMI group, after 2½ days): ~7400 I.U.
amount of vitamin D3 deposited in the first 24 hours (normal subjects): 62.5 µg
deposition in healthy obese versus normal low BMI subjects (time point of 15 hours): 1.5 times

From patent publication US20230248744A1, “25-HYDROXYVITAMIN D2 AND/OR D3 FOR USE IN OBESITY” (CARBOGEN AMCIS B.V., priority 2020, published 2023)
